Laboratory results taken from BigSolDB 2.1.

N=C(Nc1ccccc1)Nc1ccccc1
solubility (mole fraction)
Details	in acetone	in acetonitrile	in ethanol	in ethyl acetate	in isobutanol	in n-butanol	in n-propanol	in toluene
273.15 K	0.0433	0.00828	0.0144	0.0278	0.0124	0.018	0.0159	0.00132
275.65 K	0.0468	0.00909	0.0156	0.03	0.0135	0.0194	0.0174	0.00154
278.15 K	0.0508	0.0101	0.017	0.0325	0.0147	0.021	0.0189	0.00172
280.65 K	0.0554	0.0111	0.0184	0.0347	0.016	0.0227	0.0204	0.00195
283.15 K	0.0599	0.0122	0.0199	0.0372	0.0176	0.0245	0.0222	0.00219
285.65 K	0.0648	0.0134	0.0217	0.0401	0.0189	0.0266	0.0238	0.00249
288.15 K	0.07	0.0147	0.0235	0.0435	0.0208	0.0286	0.0259	0.00282
290.65 K	0.0751	0.0161	0.0253	0.0463	0.0224	0.0306	0.0278	0.00316
293.15 K	0.0802	0.0179	0.0273	0.0496	0.0244	0.0329	0.0301	0.00354
295.65 K	0.0862	0.0197	0.0292	0.053	0.0265	0.0352	0.0324	0.00389
298.15 K	0.0928	0.0214	0.0315	0.0566	0.0286	0.0377	0.035	0.00432
300.65 K	0.0993	0.0234	0.0337	0.0603	0.0311	0.0405	0.0379	0.00476
303.15 K	0.106	0.0254	0.0363	0.0641	0.0333	0.0431	0.0406	0.00528
305.65 K	0.113	0.0278	0.039	0.0678	0.0359	0.0462	0.0435	0.00584
308.15 K	0.12	0.0303	0.0419	0.0719	0.0384	0.0494	0.0465	0.00641
310.65 K	0.128	0.0331	0.0448	0.0763	0.0412	0.0527	0.0499	0.00709
313.15 K	0.137	0.036	0.0483	0.0814	0.0446	0.0562	0.0537	0.00771
